# In patent publication US20060100243A1 (priority 2004, published 2006):
# “Also recorded” adds a separate entry of the source. Where two headings read alike, the source gives them in different places.
# Key:
# [1] = molecular target: T1, recombinant human norepinephrine transporter (Homo sapiens, UniProt P23975); experiment: cell-based
# T1 construct: expressed in transfected cells
# [2] = molecular target: T2, recombinant human dopamine transporter (Homo sapiens, UniProt Q01959); experiment: [125I]RTI-55 binding, dopamine transporter in HEK 293 cells; settings: for Ki: HEK 293 cells; for potency at binding to the dopamine transporter and blocking dopamine reuptake: in words, compared with MPH / other samples
# T2 construct: expressed in transfected cells
# [3] = molecular target: T1, recombinant human norepinephrine transporter; experiment: biochemical; format: binding
# [4] = molecular target: T3, recombinant human serotonin transporter (Homo sapiens, UniProt P31645); experiment: biochemical; format: binding
# T3 construct: expressed in transfected cells
# [5] = molecular target: T3, recombinant human serotonin transporter; experiment: serotonin (5HT) reuptake inhibition in HEK 293 cells; format: cell-based
# [6] = molecular target: T2, recombinant human dopamine transporter; experiment: dopamine reuptake inhibition in HEK 293 cells; format: cell-based; settings: for IC50: HEK 293 cells; for NE/DA REUPTAKE: ratio of NE/DA reuptake IC50, selectivity for dopamine over norepinephrine transporter
# [7] = DOPAMINE [I125]-RTI-55 BINDING (Ki), RR/SS racemates table
# [8] = NOREPINEPHRINE [I125]-RTI-55 BINDING (Ki)
# [9] = SEROTONIN [I125]-RTI-55 BINDING (Ki)
# [10] = SEROTONIN 5HT REUPTAKE (IC50), RR/SS racemates table, HEK 293 cells
# [11] = DOPAMINE DA REUPTAKE (IC50), RR/SS racemates table
# [12] = RS/SR racemates table, HEK 293 cells, read-out: NOREPINEPHRINE NE REUPTAKE (IC50)
# [13] = DOPAMINE [I125]-RTI-55 BINDING (Ki), RS/SR racemates table
# [14] = DOPAMINE DA REUPTAKE (IC50), RS/SR racemates table
# [15] = RR/SS racemates table, HEK 293 cells, read-out: NOREPINEPHRINE NE REUPTAKE (IC50)
# [16] = RR/SS racemates table, HEK 293 cells, read-out: NOREPINEPHRINE [I125]-RTI-55 BINDING (Ki)
# [17] = RR/SS racemates table, HEK 293 cells, read-out: SEROTONIN [I125]-RTI-55 BINDING (Ki)
# [18] = RS/SR racemates table, HEK 293 cells, read-out: SEROTONIN [I125]-RTI-55 BINDING (Ki)
# [19] = SEROTONIN 5HT REUPTAKE (IC50), RS/SR racemates table, HEK 293 cells
# T1 sequence (P23975 whole entry): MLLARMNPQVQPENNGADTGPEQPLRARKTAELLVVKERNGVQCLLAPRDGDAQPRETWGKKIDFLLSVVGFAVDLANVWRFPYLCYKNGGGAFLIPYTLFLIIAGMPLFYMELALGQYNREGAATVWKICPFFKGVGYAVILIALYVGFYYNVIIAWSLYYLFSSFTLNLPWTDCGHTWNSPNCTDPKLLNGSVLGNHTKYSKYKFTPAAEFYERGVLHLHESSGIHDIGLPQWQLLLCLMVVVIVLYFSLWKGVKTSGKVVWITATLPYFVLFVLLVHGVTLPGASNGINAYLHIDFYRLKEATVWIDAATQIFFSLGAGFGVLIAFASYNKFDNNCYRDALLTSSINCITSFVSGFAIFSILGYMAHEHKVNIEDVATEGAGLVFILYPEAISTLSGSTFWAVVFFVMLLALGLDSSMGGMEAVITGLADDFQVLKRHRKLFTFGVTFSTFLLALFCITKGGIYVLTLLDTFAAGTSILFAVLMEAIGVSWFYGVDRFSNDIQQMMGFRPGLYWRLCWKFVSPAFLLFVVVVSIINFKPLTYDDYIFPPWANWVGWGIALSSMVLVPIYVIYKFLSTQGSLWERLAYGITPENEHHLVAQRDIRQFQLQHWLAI
# T2 sequence (Q01959 whole entry): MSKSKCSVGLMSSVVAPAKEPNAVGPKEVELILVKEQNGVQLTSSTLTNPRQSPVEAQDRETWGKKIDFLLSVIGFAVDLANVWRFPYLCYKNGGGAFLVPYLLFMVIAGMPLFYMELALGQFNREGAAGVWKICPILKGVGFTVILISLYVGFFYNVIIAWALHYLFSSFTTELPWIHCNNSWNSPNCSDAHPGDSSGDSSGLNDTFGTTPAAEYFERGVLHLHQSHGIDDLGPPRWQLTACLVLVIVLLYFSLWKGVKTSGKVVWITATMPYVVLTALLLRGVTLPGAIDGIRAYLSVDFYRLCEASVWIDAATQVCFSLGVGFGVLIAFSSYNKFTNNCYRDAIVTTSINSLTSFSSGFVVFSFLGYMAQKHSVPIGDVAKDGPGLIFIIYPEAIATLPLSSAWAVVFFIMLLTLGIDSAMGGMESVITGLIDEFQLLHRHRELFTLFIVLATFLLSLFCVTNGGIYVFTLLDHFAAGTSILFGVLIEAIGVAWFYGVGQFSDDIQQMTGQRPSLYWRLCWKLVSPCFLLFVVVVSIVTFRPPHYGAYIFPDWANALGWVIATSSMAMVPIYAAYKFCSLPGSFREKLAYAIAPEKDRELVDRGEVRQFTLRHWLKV
# T3 sequence (P31645 whole entry): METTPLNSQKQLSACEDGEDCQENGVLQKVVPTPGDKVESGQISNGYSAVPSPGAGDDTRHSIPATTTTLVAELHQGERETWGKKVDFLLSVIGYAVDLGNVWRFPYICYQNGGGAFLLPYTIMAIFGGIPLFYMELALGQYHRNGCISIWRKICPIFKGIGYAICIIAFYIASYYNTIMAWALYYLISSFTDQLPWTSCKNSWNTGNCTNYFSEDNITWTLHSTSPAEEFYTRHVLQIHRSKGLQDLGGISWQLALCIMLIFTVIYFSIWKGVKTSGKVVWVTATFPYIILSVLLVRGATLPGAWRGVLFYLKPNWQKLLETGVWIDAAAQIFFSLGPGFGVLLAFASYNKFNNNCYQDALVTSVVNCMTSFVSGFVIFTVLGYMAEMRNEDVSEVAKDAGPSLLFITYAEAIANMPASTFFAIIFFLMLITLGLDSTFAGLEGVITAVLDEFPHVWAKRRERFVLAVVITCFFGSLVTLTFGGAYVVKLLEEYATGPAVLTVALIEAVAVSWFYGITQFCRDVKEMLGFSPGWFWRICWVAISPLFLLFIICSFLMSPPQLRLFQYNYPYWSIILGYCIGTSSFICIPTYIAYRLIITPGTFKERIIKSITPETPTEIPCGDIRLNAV
SMILES,"Ki [2, 7] [nM]","Ki [4, 9] [nM]","IC50 [5, 10] [µM]","IC50 [6, 11] [nM]",NE/DA REUPTAKE [6],"Ki [2, 13] [nM]","IC50 [6, 14] [nM]",further results
"Clc1ccc(C(CCc2ccccc2)C2CCCCN2)cc1 (single isomer, unassigned) [I]",24 ± 9,640 ± 60,0.65 ± 0.219,160 ± 20,4.3,–,–,"IC50 ([1]; NORE[…] REUPTAKE (IC50)): 680 ± 240 nM; Ki [3, 8]: 1.8 ± 0.6 µM"
"COC(=O)C(c1ccc(Cl)cc1)C1CCCCN1 (single isomer, unassigned) [AA]",–,5900 ± 200,–,–,–,2000 ± 600,2700 ± 1000,"IC50 [1, 12]: 1400 ± 400 nM; IC50 ([5]; SEROTONIN 5HT REUPTAKE (IC50), RS/SR racemates table, in μM): > 10 µM"
"COC(=O)C(c1ccc(Cl)cc1)C1CCCCN1 (single isomer, unassigned) [A]",25 ± 8,6000 ± 100,–,11 ± 2,1.0,–,–,"IC50 [1, 15]: 11 ± 3 nM; Ki [3, 16]: 0.11 ± 0.04 µM"
"Clc1ccc(C(CC2CCCCC2)C2CCCCN2)cc1 (single isomer, unassigned) [H]",130 ± 40,–,1 ± 0.2,230 ± 70,4.1,–,–,"IC50 ([1]; NORE[…] REUPTAKE (IC50)): 940 ± 140 nM; Ki [3, 8]: 4.2 ± 0.2 µM; Ki [4, 17]: 900 ± 400 nM"
"CC(C)CC(c1ccc(Cl)c(Cl)c1)C1CCCCN1C (single isomer, unassigned) [O]",6.6 ± 0.9,–,1.4 ± 0.5,13 ± 4,2.2,–,–,"IC50 [1, 15]: 29 ± 3 nM; Ki [3, 16]: 0.19 ± 0.06 µM; Ki [4, 17]: 1300 ± 200 nM"
"Clc1ccc(C(C2CCCC2)C2CCCCN2)cc1 (single isomer, unassigned) [KK]",–,–,–,–,–,690 ± 140,240 ± 30,"Ki [4, 18]: 4600 ± 700 nM; IC50 [5, 19]: 4.2 ± 0.9 µM"
"CCC(c1ccc(Cl)cc1)C1CCCCN1 (single isomer, unassigned) [BB]",–,5700 ± 800,–,–,–,3500 ± 1000,2200 ± 300,"Ki ([3]; RS/SR racemates table, in μM, read-out: NOREPINEPHRINE [I125]-RTI-55 BINDING (Ki)): > 10 µM; IC50 [5, 19]: 2 ± 0.6 µM"
CC(C)CC(c1ccc(Cl)c(Cl)c1)C1CCCCN1 (racemic) [Sample N],–,–,–,–,1.6,–,–,"IC50 [1, 15]: 9 ± 1 nM; Ki ([2]; RR/SS racemates table, read-out: DOPAMINE [I125]-RTI-55 BINDING (Ki)): 1 ± 0.5 nM; potency at binding to the dopamine transporter and blocking dopamine reuptake [2]: enhanced potency; also recorded: most potent; Ki [3, 16]: 0.025 ± 0.009 µM; Ki [4, 17]: 1600 ± 100 nM; IC50 ([5]; RR/SS racemates table, HEK 293 cells, read-out: SEROTONIN 5HT REUPTAKE (IC50)): 1.1 ± 0.3 µM; IC50 ([6]; RR/SS racemates table, read-out: DOPAMINE DA REUPTAKE (IC50)): 5.5 ± 1.3 nM"
"CCCCC(c1ccc(Cl)cc1)C1CCCCN1 (single isomer, unassigned) [GG]",–,–,–,–,–,290 ± 70,170 ± 40,"IC50 [1, 12]: 180 ± 160 nM; Ki ([3]; NOREPINEPHRINE [I125]-RTI-55 BINDING (Ki), RS/SR racemates table, HEK 293 cells): 1.6 ± 0.3 µM"
CCCC(c1ccc(Cl)cc1)C1CCCCN1 (racemic) [EE],–,–,–,–,–,380 ± 40,450 ± 60,"IC50 ([1]; NORE[…] REUPTAKE (IC50)): 200 ± 50 nM; Ki [3, 8]: 1.4 ± 0.4 µM; Ki [4, 18]: 3200 ± 1100 nM; IC50 [5, 19]: 1.3 ± 0.007 µM"
"Clc1ccc(C(C2CCCC2)C2CCCCN2)cc1 (single isomer, unassigned) [K]",36 ± 10,–,4.6 ± 0.8,27 ± 8.3,–,–,–,"Ki [4, 17]: 5700 ± 1100 nM"
"CC(C)CC(c1ccc(Cl)c(Cl)c1)C1CCCCN1C (single isomer, unassigned) [OO]",–,–,–,–,–,44 ± 12,45 ± 4,"IC50 [1, 12]: 100 ± 19 nM; potency at binding to the dopamine transporter and blocking dopamine reuptake [2]: considerably more potent; also recorded: most potent; Ki ([3]; RS/SR racemates table, HEK 293 cells, read-out: NOREPINEPHRINE [I125]-RTI-55 BINDING (Ki)): 0.66 ± 0.13 µM; Ki [4, 18]: 1500 ± 300 nM; IC50 [5, 19]: 2.4 ± 0.7 µM"
"CC(C)C(c1ccc(Cl)cc1)C1CCCCN1 (single isomer, unassigned) [C]",46 ± 16,5300 ± 1300,3.3 ± 0.4,32 ± 6,1.6,–,–,"IC50 ([1]; NORE[…] REUPTAKE (IC50)): 51 ± 20 nM; Ki [3, 8]: 0.81 ± 0.17 µM"
"CCC(c1ccc(Cl)cc1)C1CCCCN1 (single isomer, unassigned) [B]",37 ± 10,7800 ± 800,2.4 ± 0.4,23 ± 5,9.1,–,–,"IC50 [1, 15]: 210 ± 30 nM; Ki [3, 16]: 0.36 ± 0.06 µM; selectivity for the dopamine transporter over the norepinephrine transporter ([6]; in words, from binding and reuptake values): enhanced selectivity"
